Results taken from patent US11311541B2 (priority 2014, dated 2022).
Entries after “also recorded” stand apart in the source; their conditions may differ. Where two headings read alike, the source gives them in different places.

What was measured:
ROCK2 [1] = biological target: T1, ROCK2 (Homo sapiens (Human), UniProt O75116); conditions: read-out: ROCK2 IC50
Excerpt: (§2) Dose response curves for Rho-kinase inhibition were derived from a Invitrogen Z′-LYTE™ Kinase Assay Kit (Invitrogen catalog number PV3793). Purified active ROCK1 and ROCK2 were obtained from Invitrogen (catalog numbers ROCK1, PV3691 and ROCK2, PV3759). The kit components include a coumarin and fluorescein labeled peptide based on myosin light chain 2 ([sequence]), a proprietary protease containing development reagent and a proprietary Stop buffer used to terminate the development reaction. The inhibitory activities of compounds are measured according to the manufactures protocol. […] This mixture is overlayed into a white 96-well half area plate and the reaction is initiated with the addition of 5 uM ATP for ROCK1 or 12 uM ATP for ROCK2. The assay proceeds at room temperature for 1 hour followed by the addition of development reagent, and further incubation for 1 hour at room temperature. STOP reagent is then added and the reaction and immediately the coumarin and fluorescein emission signals are read on a Tecan Infinite M1000 fluorescence plate reader (excitation: 400 nm; emission 445 and 520 nm, respectively). By comparing the emission ratios of the test samples against control samples, percent phosphorylation values are calculated and the concentration of inhibitor that produces ½ inhibition of kinase activity (IC50) is determined using Prism.

ROCK1 = ROCK1 (Homo sapiens (Human), UniProt Q13464); assay type: biochemical
Excerpt: as §2

cytokine secretion = assay: cytokine secretion, FIG. 10; assay type: cell-based
ROCK2 [2] = biological target: T1, ROCK2; assay: biochemical
Excerpt: as §2

[3] = test system: murine model of chronic GVHD; assay: germinal centers and Tfh cells in spleen, murine model of chronic GVHD; assay type: in vivo, mouse; conditions: 150 mg/kg
Procedure: Fixed 6-μm spleen cryosections of mice were stained with rhodamine-conjugated peanut agglutinin (PNA; Vector Laboratories), and the size of the PNA-positive sections was measured and defined as germinal centers. For flow cytometric analysis of Tfh cells and GC B cells, single-cell suspensions from spleens were obtained and labeled with anti-CD4, anti-CXCR5, and anti-PD1 antibodies (eBioscience). Cells were analyzed on a BD LSRFortessa cell analyzer.

CD4+ human T cells [4] = assay: T cell proliferation in response to TCR stimulation in vitro; assay type: cell-based
Excerpt: (§1) Activation of resting T cells, resulting in cytokine secretion and proliferation, involves two distinct signals from antigen-presenting cells (APCs), mimicked by co-stimulation of the T cell receptor (TCR)/CD3 complex and the CD28 receptor.

[5] = test system: murine model of chronic GVHD; assay: murine model of chronic GVHD, lung pathology
Procedure: On day −1, recipients received total-body irradiation (TBI) by X-ray (8.5 Gy). Donor bone marrow (BM) was T-cell depleted with anti-Thy 1.2 mAb followed by rabbit complement. On day 0, recipients received 10^7 BM cells with or without allogeneic splenocytes (10^6 cells). Weights of individual mice were recorded twice weekly. […] The analysis of pulmonary function was performed on day 28 (before the treatment) and on day 56. Anesthetized mice were weighed, and lung function was assessed by wholebody plethysmography with the Flexivent system (SCIREQ) and analyzed with Flexivent Version 5.1 software. Survival data were analyzed by life-table methods, and actuarial survival rates are shown. Group comparisons were made by log-rank test.
Lungs were inflated by infusion of 1 mL of optimal cutting temperature compound:PBS (3:1) intratracheally prior to harvest. Six-micrometer cryosections were fixed for 5 minutes in acetone and stained with mMasson's trichrome staining kit (Sigma-Aldrich) for detection of collagen deposition. Collagen deposition was quantified on trichrome-stained sections as a ratio of area of blue staining to area of total staining by use of the Adobe mPhotoshop CS3 analysis tool (Adobe Systems). For measuring Ig deposition, acetone-fixed 6-m lung cryosections were blocked with horse serum and streptavidin-biotin blocking kit (Vector) and stained with fluorescein isothiocyanate (FITC)-labeled anti-mouse-Ig (BD Pharmingen). Antibody deposition was quantified by area of Ig staining per 100-μm section.
Mice were treated as described above, except that twelve animals per group were tested. […] (n=3/group). Spleens were also collected for analysis on day 56. […] Pulmonary function tests and analysis of body weight were performed as described above.

[6] = test system: TGF-β-induced STAT3, MLC and SMAD2/3 phosphorylation; assay: TGF-β-induced phosphorylation in Tregs; assay type: cell-based
Excerpt: (FIG. 16). TGF-3 is involved in development and function of both Th17 and Treg subsets of T cells. However, when Tregs are regulated in Smad2/3-dependent signaling mechanism, TGF-β regulates Th17 cells in Smad2/3 independent manner that is considered as non-canonical TGF-β-induced signaling.

CD4+CD25+ human Tregs = assay: Treg inhibition of IL-17 secretion in CD4+CD25- T cells; assay type: cell-based; conditions: Tregs treated 3 hours; Treg:Teff 1:4 and 1:9
CD4+ human T cells [7] = assay: cytokine secretion of anti-CD3/CD28 stimulated CD4+ T cells in vitro; assay type: cell-based; conditions: anti-CD3/CD28 stimulation
Excerpt: as §1

[8] = plasma KD025 concentration in murine chronic GVHD; assay type: in vivo, mouse; conditions: day 56, 1-hr pre-dose and 1-hr post-dose
Procedure: Mice were treated as described above, except that twelve animals per group were tested. […] (n=3/group).

[9] = test system: sclerodermatous cGVHD mouse model; assay: sclerodermatous cGVHD mouse model (B10.D2 into BALB/c); assay type: in vivo
Excerpt: In this model, BALB/c (H-2^d) mice received 775 cGy of total body radiation on day 0 and were transplanted with bone marrow and T-cells from B10.D2 (H-2^d) mice. […] The GVHD score in this model combined changes in weight lost, posture, activity, fur texture, and skin integrity (FIG. 26). Sclerodermatous cGVHD mice were further analyzed as depicted in FIGS. 27-35.

[10] = test system: PBMCs of treated patients; assay: ex vivo stimulation of cytokine production in PBMCs isolated from treated patients; parameters: species or system human; conditions: 120 mg/day, days 1 and 8-14; anti-CD3/CD28 72 hours
Procedure: Peripheral blood mononuclear cells (PBMCs) were collected at the start and end of the trial and stimulated by plating on immobilized anti-CD3/CD28 antibodies for 72 hours, and levels of IL-17, IL-21, and IFN-γ were measured. […] No effect on IFN-γ was observed.

human CD4+ T cells = assay: Foxp3+ cells among CD4+ T cells; assay type: cell-based; conditions: 5 days of Th17 skewing activation
Excerpt: Foxp3 is a lineage-specific transcription factor for Tregs and is crucial to the development and inhibitory function of these cells. STAT5 signaling positively regulates the induction and stabilization of Foxp3 expression in T cells in vitro and in vivo. […] (FIG. 14).

[11] = test system: CD4+ T cells from RA patients; assay: cytokine secretion ex vivo in CD4+ T cells from RA patients; assay type: cell-based, human
Excerpt: Among RA patients, inhibition of IFN-γ production was correlated with disease activity score (DAS). (FIG. 12B).

STAT3 phosphorylation = STAT3 phosphorylation in T cells; assay type: cell-based, human
Procedure: STAT3 plays a critical role in Th17 differentiation via regulation of RORγt expression and direct binding to the IL-17 and IL-21 promoters. […] In a different experiment, cells were cultured under Th17-skewing conditions for 5 days and then treated with the ROCK2 selective inhibitor for 3 hours.

[12] = test system: STAT3/STAT5 phosphorylation, RORγt, IRF4, Bcl6 in spleens; assay: Western blot of spleen cells, murine model of cGVHD; assay type: in vivo, mouse; conditions: treatment days 28-56
Procedure: Mice were treated as described above, except that twelve animals per group were tested. […] (n=3/group). Spleens were also collected for analysis on day 56. […] Single cell suspensions were prepared from the isolated spleens. Cells were lysed in RIPA buffer and analyzed for protein content. Sample buffer was then added, and, after boiling, the samples, containing equal amounts of proteins, were separated by SDS-PAGE gel electrophoresis and transferred to a nitrocellulose membrane. Membranes were blocked and probed with specific antibodies overnight. Actin was used as a loading control. Anti-pSTAT3 pSTAT5 and Bcl6 antibodies were purchased from Cell Signaling Technologies (Beverly, Mass.). Anti-IRF4 (sc-48338) and anti-RORγt (14-6988) were obtained from Santa Cruz Biotechnology Inc. and eBioscience respectively. Immunoreactive protein bands were visualized using an HRP-conjugated secondary antibodies and an enhanced ECL system.

[13] = Table 3 (Example 203, method not given)
[14] = day 98, 42 days after last administration
[15] = 2 RA patients, intracellular staining
[16] = RA patients, anti-CD3/CD28, ex vivo

Chain of ROCK1 (Q13464 1-535): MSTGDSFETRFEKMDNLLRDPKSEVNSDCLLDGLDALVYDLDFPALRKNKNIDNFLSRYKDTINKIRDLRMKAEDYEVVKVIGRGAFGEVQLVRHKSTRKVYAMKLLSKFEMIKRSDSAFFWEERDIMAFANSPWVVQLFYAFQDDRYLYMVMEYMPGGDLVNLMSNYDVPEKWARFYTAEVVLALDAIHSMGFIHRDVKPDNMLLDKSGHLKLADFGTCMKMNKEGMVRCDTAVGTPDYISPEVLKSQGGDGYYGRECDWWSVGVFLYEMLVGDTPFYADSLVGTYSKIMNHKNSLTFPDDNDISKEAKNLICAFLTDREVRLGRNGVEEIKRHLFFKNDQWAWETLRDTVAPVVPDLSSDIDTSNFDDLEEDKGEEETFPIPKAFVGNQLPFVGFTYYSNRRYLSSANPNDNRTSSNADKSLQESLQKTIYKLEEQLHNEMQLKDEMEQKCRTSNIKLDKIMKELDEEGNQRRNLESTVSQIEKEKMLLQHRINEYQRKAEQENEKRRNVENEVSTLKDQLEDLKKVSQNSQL
T1 sequence (O75116 1-552): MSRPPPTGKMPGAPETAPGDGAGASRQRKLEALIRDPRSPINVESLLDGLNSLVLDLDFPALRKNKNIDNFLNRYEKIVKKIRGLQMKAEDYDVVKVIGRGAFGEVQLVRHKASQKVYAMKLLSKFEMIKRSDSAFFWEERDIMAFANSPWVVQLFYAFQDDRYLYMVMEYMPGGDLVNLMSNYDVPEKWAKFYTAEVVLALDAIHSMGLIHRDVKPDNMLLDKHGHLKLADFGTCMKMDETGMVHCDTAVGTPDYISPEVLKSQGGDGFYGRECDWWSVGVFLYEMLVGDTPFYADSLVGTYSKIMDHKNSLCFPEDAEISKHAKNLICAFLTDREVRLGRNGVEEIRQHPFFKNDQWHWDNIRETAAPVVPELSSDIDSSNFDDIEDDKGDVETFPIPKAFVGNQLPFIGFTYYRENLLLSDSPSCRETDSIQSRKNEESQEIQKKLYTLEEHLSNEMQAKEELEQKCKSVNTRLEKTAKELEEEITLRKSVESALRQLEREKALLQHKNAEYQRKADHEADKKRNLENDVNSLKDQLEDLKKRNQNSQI

CC(N)c1cccc(-c2nccc(Nc3ccc4[nH]ncc4c3)n2)c1 (stereo not drawn) [Example 147, N-(2-(3-(1-aminoethyl)phenyl)pyrimidin-4-yl)-1H-indazol-5-amine]
IC50 (ROCK2 [1]; Table 2, 12 uM ATP): > 5.5 µM | IC50 (ROCK1; Table 2, 5 uM ATP): > 2 µM

CC(C)NC(=O)COc1cccc(-c2nc(Nc3ccc4[nH]ncc4c3)cc(C(F)(F)F)n2)c1 [Example 169]
IC50 (ROCK2 [1]; Table 2, 12 uM ATP): > 10 µM | IC50 (ROCK1; Table 2, 5 uM ATP): > 10 µM

COc1ccc2c(c1)CN(c1nccc(Nc3ccc4[nH]ncc4c3)n1)C2 [Example 181, N-(2-(5-methoxyisoindolin-2-yl)pyrimidin-4-yl)-1H-indazol-5-amine]
secretion of IL-21 (cytokine secretion; FIG. 10 Panel A): inhibits | inhibition of IL-17 secretion (cytokine secretion; FIG. 10 Panel B): dose-dependent

c1ccc2c(c1)CN(c1nccc(Nc3ccc4[nH]ncc4c3)n1)C2 [Example 182, N-(2-(isoindolin-2-yl)pyrimidin-4-yl)-1H-indazol-5-amine]
IC50 (ROCK1; [13]): > 10 µM

COc1ccc2c(c1)CN(c1ccnc(Nc3ccc4[nH]ncc4c3)n1)C2 [Example 188, N-(4-(5-methoxyisoindolin-2-yl)pyrimidin-2-yl)-1H-indazol-5-amine]
IC50 (ROCK1; [13]): > 10 µM

Clc1ccc2c(c1)CN(c1nccc(Nc3ccc4[nH]ncc4c3)n1)C2 [Example 190, N-(2-(5-chloroisoindolin-2-yl)pyrimidin-4-yl)-1H-indazol-5-amine]
IC50 (ROCK1; [13]): > 10 µM

COc1ccc2c(c1)CCN(c1nccc(Nc3ccc4[nH]ncc4c3)n1)C2 [Example 191, N-(2-(6-methoxy-3,4-dihydroisoquinolin-2(1H)-yl)pyrimidin-4-yl)-1H-indazol-5-amine]
IC50 (ROCK1; [13]): > 10 µM

c1cc(Nc2ccc3[nH]ncc3c2)nc(N2CCc3sccc3C2)n1 [Example 192, N-(2-(6,7-dihydrothieno[3,2-c]pyridin-5(4H)-yl)pyrimidin-4-yl)-1H-indazol-5-amine]
IC50 (ROCK1; [13]): > 10 µM

COc1ccc2c(c1)CN(c1cc(Nc3ccc4[nH]ncc4c3)ncn1)C2 [Example 193, N-(6-(5-methoxyisoindolin-2-yl)pyrimidin-4-yl)-1H-indazol-5-amine]
IC50 (ROCK1; [13]): > 10 µM

COc1ccc2c(c1)CN(c1cc(Nc3ccc4[nH]ncc4c3)nc(C)n1)C2 [Example 194, N-(6-(5-methoxyisoindolin-2-yl)-2-methylpyrimidin-4-yl)-1H-indazol-5-amine]
IC50 (ROCK1; [13]): > 10 µM | IC50 (ROCK2 [2]): 0.13 to 0.18 µM

c1cc2c(cn1)CN(c1nccc(Nc3ccc4[nH]ncc4c3)n1)C2 [Example 195, N-(2-(1H-pyrrolo[3,4-c]pyridin-2(3H)-yl)pyrimidin-4-yl)-1H-indazol-5-amine]
IC50 (ROCK1; [13]): > 10 µM

COc1ccc2c(c1)CN(c1nc(C)c(C)c(Nc3ccc4[nH]ncc4c3)n1)C2 [Example 196, N-(2-(5-methoxyisoindolin-2-yl)-5,6-dimethylpyrimidin-4-yl)-1H-indazol-5-amine]
IC50 (ROCK2 [1]; [13]): > 0.01 µM

COc1ccc2c(c1)CN(c1nccc(Nc3ccc(-c4ccncc4)cc3)n1)C2 [Example 200, 2-(5-methoxyisoindolin-2-yl)-N-(4-(pyridin-4-yl)phenyl)pyrimidin-4-amine]
IC50 (ROCK1; [13]): > 10 µM

CC(C)NC(=O)COc1cccc(-c2nc(Nc3ccc4[nH]ncc4c3)c3ccccc3n2)c1 [KD025]
numbers of CD4+PD1HiCXCR5 Tfh cells in spleen [3]: reversed | numbers of germinal centers in spleen [3]: reversed | proliferation in response to TCR stimulation (CD4+ human T cells [4]): down-regulated their ability to proliferate | pulmonary function (resistance, elastance, compliance) ([5]; 100 mg/kg i.p. daily from day 28, tested day 56): significantly improved and normalized pulmonary function | antibody deposition in lungs ([5]; 150 mg/kg): essentially indistinguishable from samples from uninduced mice | collagen deposition in lungs ([5]; 150 mg/kg): essentially indistinguishable from samples from uninduced mice | effect on cGVHD lung pathology, dose dependence ([5]; 30, 100, 150 mg/kg): dose dependent | body weight ([5]; Example 216, FIG. 23): no effect | survival rates ([5]; FIG. 18): no effect | body weight ([5]; FIG. 18, 19): no effect | lung resistance [5, 14]: dose-dependent decrease | respiratory function [5, 14]: long-lasting improvement; also recorded: Partial improvement | TGF-β-induced MLC phosphorylation [6]: down-regulates | TGF-β-induced STAT3 phosphorylation [6]: down-regulates | phosphorylation of SMAD2/3 [6]: remains intact | ability of Tregs to suppress IL-17 secretion in CD4+CD25- effector T cells (CD4+CD25+ human Tregs): significantly increased | IFN-γ secretion (CD4+ human T cells [7]): less robust and significant only at high dose (10 μM) | IL-2 secretion (CD4+ human T cells [7]): observed only at the highest concentration (10 μM) | IL-17 secretion (CD4+ human T cells [7]): significantly inhibited | IL-21 secretion (CD4+ human T cells [7]): significantly inhibited | plasma KD025 concentrations [8]: measurable and generally dose dependent | cervical LN T Cell IFNg ([9]; FIG. 32): decreased | development of chronic sclerodermatous cGVHD ([9]; i.p. once daily days 19-47): blocked the development | GVHD score ([9]; i.p. once daily days 19-47, weight lost, posture, activity, fur texture, skin integrity): significantly decreased | induction of IL-17 secretion in PBMCs [10]: significantly inhibited in PBMCs isolated from four of five patients | induction of IL-21 secretion in PBMCs [10]: significantly inhibited in PBMCs from all five patients | percentage of Foxp3+ cells (human CD4+ T cells): significantly increased | frequency of IFN-γ-producing cells [11, 15]: significantly reduced the frequencies | frequency of IL-17-producing cells [11, 15]: significantly reduced the frequencies | IFN-γ secretion [11, 16]: significantly down-regulated | IL-17 secretion [11, 16]: significantly down-regulated | IL-21 secretion [11, 16]: significantly down-regulated | phosphorylation of IFR4 and RORγT (STAT3 phosphorylation; separate experiment, FIG. 11C): reduced phosphorylation | phosphorylation of STAT3 (STAT3 phosphorylation; two designs: pre-treatment then anti-CD3/CD28, Th17-skewing 5 days then 3 hours treatment): significantly down-regulates | STAT3 phosphorylation in spleens [12]: significant reduction | STAT5 phosphorylation in spleens [12]: concurrent increase | protein levels of RORγt, IRF4 and Bcl6 in spleenocytes [12]: dose-dependent decrease
